This test has as its target T1, human active recombinant p38α-6His tagged (Homo sapiens, UniProt Q16539).
T1 construct: 6His
Briefly: p38 Alpha Enzyme Assay (AlphaScreen, biotinylated-ATF2 substrate). The test is classed as biochemical. To be noted: pre-incubated 4 hours at 37° C., reaction initiated with ATP; 0.5 nM enzyme; read-out: p38 pIC50 (converted). As to the method: The ability of the compounds of formula (I) to inhibit p38 kinase may be determined using the following biological assay:
Enzyme assays were performed in polypropylene 96 well plates. The following solutions were added to each well; 10 μL of compound dilutions in assay buffer (20 mM HEPES pH 7.4, containing 20 mM magnesium acetate, 0.005% (w/v) Tween-20, 10 mM DTT) containing 1% (v/v) DMSO or assay buffer containing 1% (v/v) DMSO alone, 70 μL of assay buffer containing 36 nM substrate (biotinylated-ATF2) and 10 μL of an appropriate dilution of human active recombinant p38α-6His tagged. Depending on batch of p38, an appropriate dilution was typically a 5 nM solution to give a final enzyme concentration of 0.5 nM. At this stage, background control wells also received 50 μL of AlphaScreen quench buffer (10 mM HEPES pH 7.4 containing 100 mM EDTA, 0.2% (w/v) bovine serum albumin). The plate was covered, pre-incubated for 4 hours at 37° C. and the enzyme reaction initiated by addition of 10 μL 1 mM ATP. After incubation for a further 45 minutes at 37° C., the reaction was stopped by addition of 50 μL quench reagent and 50 μL of the quenched reaction mixture transferred to an opaque, white 96-well plate. Detection reagent, 25 μL of 10 mM HEPES pH 7.4 containing 100 mM EDTA, 0.2% (w/v) bovine serum albumin, 0.3 nM anti phosphoATF2 antibody and 25 μg/mL of ‘AlphaScreen protein A acceptor and donor beads’ (PerkinElmer Inc.), was added to all wells in a darkened room, the plate sealed and left in the dark for at least 5 hours before AlphaScreen readings were taken using a Perkin Elmer EnVision reader. Total, uninhibited activity was determined from assays performed in each assay plate. The mean control in the absence of p38 activity was subtracted from each well. Data were expressed as percent inhibition of total activity using equation 1. Percent Inhibition=100*(1−Test/Control) Eq.1 Where . . . . • Test=p38 kinase activity in the presence of compound • Control=p38 kinase activity in the absence of compound.
pIC50 is defined as the logarithm of the reciprocal of the concentration of compound required for 50% reduction in total p38 kinase activity.

Structures can show the parent of a compound that is named as a salt.

These results are taken from patent US8012979B2, “Compounds and their uses 707” (AstraZeneca AB, priority 2007, dated 2011).

T1 sequence (Q16539 whole entry): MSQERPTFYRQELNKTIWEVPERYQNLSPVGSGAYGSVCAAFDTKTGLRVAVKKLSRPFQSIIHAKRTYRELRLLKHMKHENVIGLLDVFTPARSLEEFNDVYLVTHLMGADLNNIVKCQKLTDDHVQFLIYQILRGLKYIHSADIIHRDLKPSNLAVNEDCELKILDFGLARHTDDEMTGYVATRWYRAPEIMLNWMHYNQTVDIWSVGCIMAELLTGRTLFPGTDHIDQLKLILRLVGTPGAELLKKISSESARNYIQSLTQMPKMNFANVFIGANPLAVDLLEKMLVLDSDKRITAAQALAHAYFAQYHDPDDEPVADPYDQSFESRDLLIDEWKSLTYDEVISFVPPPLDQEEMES

In the case of `Cc1ccc(C(=O)NC2CC2)cc1-c1ccc2c(=O)n(Cc3ccccc3)ccc2c1` [Example 1, 3-(2-Benzyl-1-oxo-1,2-dihydro-isoquinolin-6-yl)-N-cyclopropyl-4-methyl-benzamide], the IC50 was 0.794 nM.

Turning to `CCNC(=O)c1ccc(C)c(-c2ccc3c(=O)n(Cc4ccccc4)ccc3c2)c1` [Example 2, 3-(2-Benzyl-1-oxo-1,2-dihydro-isoquinolin-6-yl)-N-ethyl-4-methyl-benzamide], the IC50 is 7.94 nM. The value for `Cc1ccc(C(=O)NC2CC2)cc1-c1ccc2c(=O)n(Cc3ccc(Br)cc3)ccc2c1` [Example 3, 3-[2-(4-Bromo-benzyl)-1-oxo-1,2-dihydro-isoquinolin-6-yl]-N-cyclopropyl-4-methyl-benzamide] was 2.51 nM; that for `Cc1ccc(C(=O)NC2CC2)cc1-c1ccc2c(=O)n(Cc3ccc(N4CCN(C)CC4)cc3)ccc2c1` [Example 4, N-Cyclopropyl-4-methyl-3{2-[4-(4-methyl-piperazin-1-yl)-benzyl]-1-oxo-1,2-dihydro-isoquinolin-6-yl}-benzamide] was 1.26 nM; that for `Cc1ccc(C(=O)NC2CC2)cc1-c1ccc2c(=O)n(Cc3ccc(S(C)(=O)=O)cc3)ccc2c1` [Example 5, N-Cyclopropyl-3-[2-(4-methanesulfonyl-benzyl)-1-oxo-1,2-dihydro-isoquinolin-6-yl]-4-methyl-benzamide] was 3.16 nM. `Cc1ccc(C(=O)NC2CC2)cc1-c1ccc2c(=O)n(Cc3ccc(C4=CCN(C(=O)OC(C)(C)C)CC4)cc3)ccc2c1` [Example 6, 4-{4-[6-(5-Cyclopropylcarbamoyl-2-methyl-phenyl)-1-oxo-1H-isoquinolin-2-ylmethyl]-phenyl}-3,6-dihydro-2H-pyridine-1-carboxylic acid, tert-butyl ester]: the IC50 is 6.31 nM. On to `Cc1ccc(C(=O)NC2CC2)cc1-c1ccc2c(=O)n(Cc3ccc(C4=CCNCC4)cc3)ccc2c1` [Example 7, N-Cyclopropyl-4-methyl-3-[1-oxo-2-{4-(1,2,3,6-tetrahydro-pyridin-4-yl)-benzyl}-1,2-dihydro-isoquinolin-6-yl]-benzamide, hydrochloride], for which the IC50 is 0.398 nM. Turning to `Cc1ccc(C(=O)NC2CC2)cc1-c1ccc2c(=O)n(Cc3ccc(C4CCNCC4)cc3)ccc2c1` [Example 8, N-Cyclopropyl-4-methyl-3-[1-oxo-2-(4-piperidin-4-yl-benzyl)-1,2-dihydro-isoquinolin-6-yl]-benzamide], the IC50 is 0.501 nM. On to `CONC(=O)c1ccc(C)c(-c2ccc3c(=O)n(Cc4ccc(C5=CCNCC5)cc4)ccc3c2)c1` [Example 9, N-Methoxy-4-methyl-3-[1-oxo-2-[4-(1,2,3,6-tetrahydro-pyridin-4-yl)-benzyl]-1,2-dihydro-isoquinolin-6-yl]-benzamide], for which the IC50 is 0.2 nM. Then `Cc1ccc(C(=O)NC2CC2)cc1-c1ccc2c(=O)n(Cc3cccc(OCCCN(C)C)c3)ccc2c1` [Example 10, N-Cyclopropyl-3-{2-[3-(3-dimethylamino-propoxy)-benzyl]-1-oxo-1,2-dihydro-isoquinolin-6-yl}-4-methyl-benzamide], with 2 nM; and `Cc1ccc(C(=O)NC2CC2)cc1-c1ccc2c(=O)[nH]ccc2c1` [Example 11, N-Cyclopropyl-4-methyl-3-(1-oxo-1,2-dihydro-isoquinolin-6-yl)-benzamide], with 25.1 nM. The value for `C=CCn1ccc2cc(-c3cc(C(=O)NC4CC4)ccc3C)ccc2c1=O` [Example 12, 3-(2-Allyl-1-oxo-1,2-dihydro-isoquinolin-6-yl)-N-cyclopropyl-4-methyl-benzamide] was 7.94 nM.

Regarding `Cc1ccc(C(=O)NC2CC2)cc1-c1ccc2c(=O)n(CCCN3CCCC3)ccc2c1` [Example 13, N-Cyclopropyl-4-methyl-3-[1-oxo-2-(3-pyrrolidin-1-yl-propyl)-1,2-dihydro-isoquinolin-6-yl]-benzamide], the IC50 is 316 nM. On to `Cc1ccc(C(=O)NC2CC2)cc1-c1ccc2c(=O)n(Cc3ccc(CN(C)C)cc3)ccc2c1` [Example 14, N-Cyclopropyl-3-[2-(4-dimethylaminomethyl-benzyl)-1-oxo-1,2-dihydro-isoquinolin-6-yl]-4-methyl-benzamide], for which the IC50 is 2.51 nM.

Take `Cc1ccc(C(=O)NC2CC2)cc1-c1ccc2c(=O)n(Cc3cccc(CN(C)C)c3)ccc2c1` [Example 15, N-Cyclopropyl-3-[2-(3-dimethylaminomethyl-benzyl)-1-oxo-1,2-dihydro-isoquinolin-6-yl]-4-methyl-benzamide]: the IC50 was 3.16 nM.

For `Cc1ccc(C(=O)NC2CC2)cc1-c1ccc2c(=O)n(Cc3ccccc3CN(C)C)ccc2c1` [Example 16, N-Cyclopropyl-3-[2-(2-dimethylaminomethyl-benzyl)-1-oxo-1,2-dihydro-isoquinolin-6-yl]-4-methyl-benzamide], the IC50 was 50.1 nM. As to `COc1ccc(Cn2ccc3cc(-c4cc(C(=O)NC5CC5)ccc4C)ccc3c2=O)cc1` [Example 17, N-Cyclopropyl-3-[2-(4-methoxy-benzyl)-1-oxo-1,2-dihydro-isoquinolin-6-yl]-4-methyl-benzamide], the IC50 was 1 nM. The value for `Cc1ccc(C(=O)NC2CC2)cc1-c1ccc2c(=O)n(Cc3ccc(C(=O)N(C)CCN(C)C)cc3)ccc2c1` [Example 18, N-Cyclopropyl-3-(2-(4-((2-(dimethylamino)ethyl)(methyl)carbamoyl)benzyl)-1-oxo-1,2-dihydroisoquinolin-6-yl)-4-methylbenzamide] was 2 nM; that for `Cc1ccc(C(=O)NC2CC2)cc1-c1ccc2c(=O)n(Cc3ccc(C(=O)NCCN(C)C)cc3)ccc2c1` [Example 19, N-Cyclopropyl-3-(2-(4-(2-(dimethylamino)ethylcarbamoyl)benzyl)-1-oxo-1,2-dihydroisoquinolin-6-yl)-4-methylbenzamide] was 1 nM; that for `Cc1ccc(C(=O)NC2CC2)cc1-c1ccc2c(=O)n(Cc3ccc(C(=O)N4CCN(C)CC4)cc3)ccc2c1` [Example 20, N-Cyclopropyl-4-methyl-3-(2-(4-(4-methylpiperazine-1-carbonyl)benzyl)-1-oxo-1,2-dihydroisoquinolin-6-yl)benzamide] was 1.26 nM. Regarding `Cc1ccc(C(=O)NC2CC2)cc1-c1ccc2c(=O)n(Cc3ccc(C(=O)N(C)CCCN(C)C)cc3)ccc2c1` [Example 21, N-Cyclopropyl-3-(2-(4-((3-(dimethylamino)propyl)(methyl)carbamoyl)benzyl)-1-oxo-1,2-dihydroisoquinolin-6-yl)-4-methylbenzamide], the IC50 is 3.16 nM. For `Cc1ccc(C(=O)NC2CC2)cc1-c1ccc2c(=O)n(Cc3ccc(C(=O)NCCN4CCCC4)cc3)ccc2c1` [Example 22, N-Cyclopropyl-4-methyl-3-(1-oxo-2-(4-(2-(pyrrolidin-1-yl)ethylcarbamoyl)benzyl)-1,2-dihydroisoquinolin-6-yl)benzamide], the IC50 is 0.794 nM. Turning to `CNCCN(C)C(=O)c1ccc(Cn2ccc3cc(-c4cc(C(=O)NC5CC5)ccc4C)ccc3c2=O)cc1` [Example 23, N-Cyclopropyl-4-methyl-3-(2-(4-(methyl(2-(methylamino)ethyl)carbamoyl)benzyl)-1-oxo-1,2-dihydroisoquinolin-6-yl)benzamide], the IC50 was 2 nM.

As for `Cc1ccc(C(=O)NC2CC2)cc1-c1ccc2c(=O)n(Cc3ccc(C(=O)NCCCN4CCCC4)cc3)ccc2c1` [Example 24, N-Cyclopropyl-4-methyl-3-(1-oxo-2-(4-(3-(pyrrolidin-1-yl)propylcarbamoyl)benzyl)-1,2-dihydroisoquinolin-6-yl)benzamide], the IC50 was 0.631 nM. Regarding `Cc1ccc(C(=O)NC2CC2)cc1-c1ccc2c(=O)n(Cc3ccc(CN4CCCC4)cc3)ccc2c1` [Example 25, N-Cyclopropyl-4-methyl-3-(1-oxo-2-(4-(pyrrolidin-1-ylmethyl)benzyl)-1,2-dihydroisoquinolin-6-yl)benzamide], the IC50 is 3.16 nM. Then `Cc1ccc(C(=O)NC2CC2)cc1-c1ccc2c(=O)n(Cc3ccc(CN4CCN(C)CC4)cc3)ccc2c1` [Example 26, N-Cyclopropyl-4-methyl-3-(2-(4-((4-methylpiperazin-1-yl)methyl)benzyl)-1-oxo-1,2-dihydroisoquinolin-6-yl)benzamide], with 3.16 nM. Then `Cc1ccc(C(=O)NC2CC2)cc1-c1ccc2c(=O)n(Cc3ccc(CN(C)C(C)(C)C)cc3)ccc2c1` [Example 27, 3-(2-(4-((Tert-butyl(methyl)amino)methyl)benzyl)-1-oxo-1,2-dihydroisoquinolin-6-yl)-N-cyclopropyl-4-methylbenzamide], with 1 nM.
